Test results reported in patent US20080171072A1, “OCULAR INSERTS CONTAINING APOMORPHINE” (priority 2006, published 2008).

What was measured:
[1] = Autoclaving of the casting solution; assay type: physicochemical; conditions: preliminary trial
canine patients [2] = conditions: intravenous route
Excerpt: On the report forms supplied with the product, if any of these occurred the clinicians were asked to grade them on a subjective scale of 1 to 5 with a score of 1 being mild and 5 being severe. The clinicians were also asked to rate the ease of use of the inserts for each case with a score of 5 being very easy to use and 1 being very difficult.

canine patients [3] = system: canine patients
[4] = subjective scale, 5 severe, Median (25%-75%)

| Compound | stability under conditions required for autoclaving [1] | Prolonged vomiting, Frequency (%) (canine patients [2]; n = 32) | Sedation, Frequency (%) (canine patients [2]; n = 32) | Tachycardia, Frequency (%) (canine patients [2]; n = 32) | Prolonged vomiting, Score (canine patients [2]; [4]) | Sedation, Score (canine patients [2]; [4]) | Tachycardia, Score (canine patients [2]; [4]) | % of Patients, Success (canine patients [3]; intravenous 0.03-0.04 mg kg-1, emesis within 15 minutes, n 32) | Time to emesis (canine patients [3]; intravenous 0.03-0.04 mg kg-1, median, n 32 (Success 29)) | % of Patients, Failure (canine patients [3]; intravenous 0.03-0.04 mg kg-1, n 32) | % of patients showing no emesis at all (canine patients [3]; intravenous route, n 32) |
| --- | --- | --- | --- | --- | --- | --- | --- | --- | --- | --- | --- |
| CN1CCc2cccc3c2[C@H]1Cc1ccc(O)c(O)c1-3 [apomorphine] | unstable | – | – | – | – | – | – | – | – | – | – |
| CN1CCc2cccc3c2[C@H]1Cc1ccc(O)c(O)c1-3.Cl [intravenous apomorphine, apomorphine HCI] | – | 3.1% | 43.8% | 15.6% | 3 (3-3) | 2 (1-2) | 2 (2-3) | 90.6% | 1.0 min | 9.4% | 9.4% |
